Reference: ChEMBL document CHEMBL3244307, “Replacement of the disulfide bond in oxytocin by an amide group. Synthesis and some biological properties of (cyclo-(1-L-aspartic acid,6-L-alpha,beta-diaminopropionic acid))oxytocin” (1978)
Active and inactive are the calls of the source. The rule behind the calls is not given here. Where a SMILES comes first, the peptide text is derived from it. Bridges are numbered along the chain shown (N, C = ends). [ ]: non-standard residue; d: D form. ξ: configuration not given here. ξDap = NCC(N)C(=O)O; βAla = NCCC(=O)O

Experiments:
Rattus norvegicus [1] = species on record: Rattus norvegicus; test: Antidiuretic activity in rat; type: functional, Urine
Rattus norvegicus [2] = species on record: Rattus norvegicus; test: Effect on pressor response in rat; type: functional, organism-based
Rattus norvegicus [3] = species on record: Rattus norvegicus; test: Uterotonic activity in rat; type: functional
Gallus gallus = test: Effect on vasodepressor activity in conscious chicken; type: functional

| Compound | Activity (Rattus norvegicus [1]) | Activity (Rattus norvegicus [2]) | Activity (Rattus norvegicus [3]) | Activity (Gallus gallus) |
| --- | --- | --- | --- | --- |
| CC[C@H](C)[C@@H]1NC(=O)[C@H](Cc2ccc(O)cc2)NC(=O)[C@@H](N)CC(=O)NCC(C(=O)N2CCC[C@H]2C(=O)N[C@@H](CC(C)C)C(=O)NCC(N)=O)NC(=O)[C@H](CC(N)=O)NC(=O)[C@H](CCC(N)=O)NC1=O (stereo partly drawn) (H-DYIQN[ξDap]PLG-NH2; lactam 1-6) | 5.6 U/mg | Active | 16 U/mg | 6.6 U/mg |
| CC[C@H](C)[C@@H]1NC(=O)[C@H](Cc2ccc(O)cc2)NC(=O)CCNC(=O)C[C@@H](C(=O)N2CCC[C@H]2C(=O)N[C@@H](CC(C)C)C(=O)NCC(N)=O)NC(=O)[C@H](CC(N)=O)NC(=O)[C@H](CCC(N)=O)NC1=O ([βAla]YIQNDPLG-NH2; lactam N-6) | – | – | 1.13 U/mg | – |
| CC[C@H](C)[C@@H]1NC(=O)[C@H](Cc2ccc(O)cc2)NC(=O)[C@@H](N)CSSC[C@@H](C(=O)N2CCC[C@H]2C(=O)N[C@@H](CC(C)C)C(=O)NCC(N)=O)NC(=O)[C@H](CC(N)=O)NC(=O)[C@H](CCC(N)=O)NC1=O [OXYTOCIN] | 3 U/mg | – | 540 U/mg | 500 U/mg |
